Results taken from PubChem BioAssay AID2823 (Broad Institute, 2010).
Active and inactive are the calls of the source. How the calls were made is not given here.

Molecular target: RanGTP-importin-beta complex (human Ran / KPNB1)
Assay: disruptors of RanGTP/KPNB1 binding – biochemical, FRET, CFP/YFP, cell-free homogeneous, confirmation (AID 2823)
Settings: CFP-Ran/YFP-importin-beta FRET ratio

SMILES	IC50
CC1(C)CC(=O)C=C(Nc2ccccc2F)C1	> 50 µM (inactive)
NC(=O)c1ccccc1NC(=O)/C=C/c1ccc(Cl)cc1	> 50 µM (inactive)
COCCNC(=O)c1cnn2c(C(F)F)cc(-c3ccc(C)cc3)nc12	37.8 µM
Oc1ccc(-c2[nH]ncc2-c2cccc3cccnc23)c(O)c1	> 50 µM (inactive)
COc1cc([C@@H]2[C@H]3CN(C)CC=C3C(C#N)=C(N)C2(C#N)C#N)cc2c1OCO2	21 µM
COC(=O)Nc1ccc(NC(C)=O)cc1	> 50 µM (inactive)
CCOC(=O)c1ccc2[nH]cc(C(C)=O)c(=O)c2c1	12.6 µM
CCc1ccc(C2C(C#N)=C(N)SC(N)=C2C#N)cc1	> 50 µM (inactive)
COc1ccccc1C(=O)NC(=S)Nc1ccc(N2CCCC2)cc1	> 50 µM (inactive)
CCN(CC)S(=O)(=O)c1ccc(/C=C/C(=O)Nc2ccc(F)cc2F)cc1	> 50 µM (inactive)
O=C(Nc1nonc1NC(=O)c1cccs1)c1cccs1	> 50 µM (inactive)
COc1ccc(-c2cc(C(=O)O)nc3ccc4ccccc4c23)cc1OC	> 50 µM (inactive)
Cc1cccn2c(=O)c(/C=C(\C#N)C(=O)NC3CCS(=O)(=O)C3)c(Oc3ccc(F)cc3)nc12 (configuration not stated)	15.6 µM
CC1=C(C(=O)OC(C)C)C(c2cccnc2)C2=C(CC(C)(C)CC2=O)N1 (configuration not stated)	20.5 µM
CCOC(=O)c1oc2c(CN3CCN(CCO)CC3)c(O)c(CC)cc2c(=O)c1-c1nc2ccccc2s1	18.4 µM
CC(C)CCNC(=O)C(c1ccco1)N(Cc1ccc(F)cc1)C(=O)c1snc(C(N)=O)c1N (configuration not stated)	> 50 µM (inactive)
O=C(c1ccc(F)cc1)c1cc2ccc(O)cc2oc1=O	11.4 µM
COc1cc(C(=O)Oc2c(CN3CCOCC3)cc(Cl)c3cccnc23)cc(OC)c1OC	> 50 µM (inactive)
COC(=O)Cn1c(=O)c2c(nc3n2CCCN3CCc2ccccc2)n(C)c1=O	> 50 µM (inactive)
N#CC1=C(N)SC(N)=C(C#N)C1c1cccc(Oc2ccccc2)c1	> 50 µM (inactive)
COc1ccc(N=Cc2cc(Cc3ccccc3Cl)cc([N+](=O)[O-])c2O)cc1OC	> 50 µM (inactive)
CCOC(=O)c1ccc(NC(=O)CSc2nnc(C3CCCCC3)n2C)cc1	> 50 µM (inactive)
CCn1c2ccccc2c2cc(NC(=O)CNC)ccc21	> 50 µM (inactive)
COC(=O)Cc1c(C)c2ccc(O)c(CNCc3ccc(OC)c(OC)c3)c2oc1=O	6.13 µM
COc1ccc2c(CC#N)c[nH]c2c1	> 50 µM (inactive)
CC(C)OC(=O)c1c(N)n(CCCN2CCOCC2)c2nc3ccccc3nc12	25.8 µM

SMILES	IC50
COc1cc(OC)cc(C(=O)NCCNc2nc3cc(C)cc(C)c3cc2C#N)c1	8.59 µM
Cc1ccc(-n2c(=O)c(C#N)cc3c(=O)n4ccccc4nc32)cc1C	> 50 µM (inactive)
CCn1c(=O)cc(N2CCCCC2)[nH]c1=O	> 50 µM (inactive)
Cn1c(=O)cc(OCCCC(=O)NCc2ccccn2)c2ccccc21	> 50 µM (inactive)
O=C(CSc1nnc(-c2ccc(F)cc2)o1)Nc1ccc(S(=O)(=O)N2CCCC2)cc1	> 50 µM (inactive)
Cc1ccc(-c2c(C(=O)N/N=C/c3ccc4c(c3)OCO4)nnn2-c2nonc2N)cc1	> 50 µM (inactive)
CCn1c(SCC(=O)N(Cc2ccccc2)C2CCS(=O)(=O)C2)nc2ccccc2c1=O (configuration not stated)	> 50 µM (inactive)
CN(C)/C=C/C(=O)/C=C/c1ccc(Cl)cc1	> 50 µM (inactive)
N#Cc1c(N)n(CCOC(=O)c2ccc(Cl)cc2)c2nc3ccccc3nc12	3.68 µM
COc1cc(/C=C(\C#N)C(=O)Nc2cccc3ncccc23)cc(OC)c1OC	> 50 µM (inactive)
CCCOC(=S)NC(=O)c1sc2ccccc2c1Cl	> 50 µM (inactive)
CCOC(=O)c1[nH]c(C)c(C(=O)N(C)Cc2ccccc2)c1C	> 50 µM (inactive)
Cc1cccc(C)c1OCC(=O)OC/C(O)=C(\C#N)c1nc2ccccc2[nH]1	> 50 µM (inactive)
CN(C)S(=O)(=O)c1ccc(N2CCCC2)c(C(=O)NC(c2ccccc2)c2ccccc2)c1	> 50 µM (inactive)
CC(NCc1cccs1)C(=O)NC1CCCCC1 (configuration not stated)	> 50 µM (inactive)
Cc1ccc(-c2ccc(/C=C(\C#N)C(N)=S)n2C)cc1	> 50 µM (inactive)
CCN(CC)Cc1c(O)c(Cl)cc2c3c(c(=O)oc12)CCCC3	20.6 µM
CC(=O)O[C@H]1CCC2C3CCC4=CC(=O)CCC4=C3C=C[C@@]21C (some centres not stated)	> 50 µM (inactive)
Cc1c(N=Cc2c(O)n(Cc3ccco3)c(=O)c3ccccc23)c(=O)n(-c2ccccc2)n1C	> 50 µM (inactive)
O=S(=O)(Nc1nc2ccccc2nc1-[n+]1cccc(N=C([O-])c2ccccc2Cl)c1)c1ccccc1	6.27 µM
Cc1cccc(C2=NN(c3ccc(Br)cc3)[C@@H](C(=O)N3CCOC3=O)[C@@H]2c2ccc(F)cc2)c1	33.6 µM
CCCc1cc(=O)oc2c(CN(CC)CC)c(O)c(Cl)cc12	43.4 µM
CCN(Cc1ccccc1)C(=O)CN1C(=O)NC(CC)(c2ccc(F)cc2)C1=O (configuration not stated)	> 50 µM (inactive)
Cc1c(C)c2cc(Cl)c(O)c(CN(C)C)c2oc1=O	25.2 µM
COc1ccc2c(c1)O/C(=C\c1ccco1)C2=O	18.3 µM
COc1ccccc1NC(=O)CN1CCN(CC(=O)Nc2ccc(C)c(F)c2)CC1	> 50 µM (inactive)

SMILES	IC50
O=C(CN1C2CCCC1CC(NC(=O)c1ccco1)C2)Nc1ccccc1C(F)(F)F (configuration not stated)	> 50 µM (inactive)
CC(C)Cc1nn2c(N)c(/C=C3\C=Nc4ccccc43)c(=O)nc2s1	> 50 µM (inactive)
COc1ccc(CCNC(=O)c2cc3c(=O)n4ccccc4nc3n(CCCN3CCOCC3)c2=N)cc1	17.9 µM
Cc1ccc(Cl)cc1N1C(=O)CC(Sc2ncccn2)C1=O (configuration not stated)	> 50 µM (inactive)
O=C(CN1CC(=O)Oc2ccccc21)NCc1ccco1	> 50 µM (inactive)
COCCCn1c(N)c(C(=O)Nc2ccccc2)c2nc3ccccc3nc21	40.8 µM
CN1CCCN(C(=O)Cc2c(Cl)cccc2Cl)c2nc3ccccc3nc21	36.5 µM
Cc1cc(Cl)ccc1C(=O)C1CCCN(C(=O)c2n[nH]c3c2CCCC3)C1 (configuration not stated)	> 50 µM (inactive)
Cc1c(O)ccc2c3c(c(=O)oc12)CCC(C)C3 (configuration not stated)	11.9 µM
Cc1cnc(C(=O)Nc2ccc(S(=O)(=O)N(C(C)C)C(C)C)cc2)cn1	> 50 µM (inactive)
CC(=O)c1ccc(-c2ccc(Cn3c(C)nc4cc(N)c(C)nc43)cc2)cc1	> 50 µM (inactive)
Cn1cnc(S(=O)(=O)N2CCN(c3ccc(Cl)cc3)CC2)c1	> 50 µM (inactive)
CCOC(=O)c1ccc(NC(=O)CSc2nc(C)nc3c2c(=O)n(C)c(=O)n3C)cc1	> 50 µM (inactive)
O=C(N/N=C/c1ccc(-c2ccccc2Cl)o1)c1ccccc1	> 50 µM (inactive)
CCOc1ccc(N2C(=O)C3C4C=CC(CC4)C3C2=O)c([N+](=O)[O-])c1 (configuration not stated)	> 50 µM (inactive)
N#CC1=C(N)SC(N)=C(C#N)C1c1cccc(O)c1	> 50 µM (inactive)
N#C/C(=C/c1ccc(N2CCCCC2)o1)C(=O)NCCc1c[nH]c2ccccc12	0.936 µM
CCOC(=O)C1CCN(c2cc(=O)n(C3CCCCC3)c(=O)[nH]2)CC1	> 50 µM (inactive)
Cc1nc2ccc(NC(=O)c3nn(CC(C)C)c(=O)c4ccccc34)cc2s1	> 50 µM (inactive)
Cc1cccc2cc(C#N)c(NCCCn3ccnc3)nc12	19.2 µM
COc1ccc(C(=O)c2cc3ccc(O)cc3oc2=O)cc1	16.4 µM
O=c1cc(N2CCC3(CC2)OCCO3)[nH]c(=O)n1-c1ccc(Br)cc1	> 50 µM (inactive)
CCOc1ccc(N=Cc2c(O)n(-c3cccc(C)n3)c(=O)c3ccccc23)cc1	> 26 µM (inactive)
COC(=O)c1ccc(NC(=O)C(=O)N2CCN(C(=S)Nc3ccccc3OC)CC2)cc1	> 50 µM (inactive)
COc1cc2c(cc1OC)CN(Cc1ccccc1)CC2	> 50 µM (inactive)
O=C(Oc1ccc2c3c(c(=O)oc2c1)CCCC3)c1ccco1	16 µM

SMILES	IC50
CC(C)Sc1nnc(CNC(=O)C23CC4CC(CC(C4)C2)C3)n1C1CCCCC1	> 50 µM (inactive)
CC(C)NC(=O)/C(C#N)=C/c1ccc(N(C)C)o1	6.07 µM
N#Cc1c(N)[nH]c(=S)c(C#N)c1-c1ccccc1	> 50 µM (inactive)
Cc1cccc(NC(=O)c2cc3c(s2)-c2c(C)cccc2OC3)n1	7.45 µM
O=C(NNc1c2ccccc2nc2ccccc12)c1ccc(Cl)cc1	> 50 µM (inactive)
Cc1ccc(-c2c(C#N)c(N)nc3c2CCCC3)s1	25.7 µM
COCCN1C=C(C(=O)OC)C(c2ccc(Cl)cc2)C(C(=O)OC)=C1	9.78 µM
Cn1c(SCc2ccccc2F)nnc1-c1ccccn1	> 50 µM (inactive)
OCCN1CCN(c2nc(-c3ccccc3)c3cc(Cl)ccc3n2)CC1	22.2 µM
Cc1cc(C)c2c(c1)/C(=c1/sc3n(c1=O)CN(c1ccccc1)CN=3)C(=O)N2	> 50 µM (inactive)
Cc1ccc(OCC(=O)c2cc(C)n(CC(F)(F)F)c2C)c([N+](=O)[O-])n1	> 50 µM (inactive)
CCOCCCNC(=O)/C(C#N)=C/c1cc(Br)c(O)c(Br)c1	12.5 µM
Cn1c(=O)cc(N2CCCCC2)[nH]c1=O	> 50 µM (inactive)
CC(C)(C)Nc1nc(SCC(=O)Nc2ccccc2)nc(N2CCOCC2)n1	> 50 µM (inactive)
Cc1sc2ncn(CC(=O)NCCCC(=O)N3CCN(Cc4ccc5c(c4)OCO5)CC3)c(=O)c2c1C	> 50 µM (inactive)
CC1(C)CCC(=O)C=C1Nc1ccc(F)c(Cl)c1	> 50 µM (inactive)
COc1ccc(CCNC(=O)c2cc3c(=O)n4cccc(C)c4nc3n(CCCN3CCOCC3)c2=N)cc1	4.87 µM
COc1ccc(-n2c(C)cc(/C=C3/SC(=S)N(C)C3=O)c2C)cc1	> 50 µM (inactive)
O=C1NC(=S)S/C1=C1\Sc2ccccc2N1CCCS(=O)(=O)O	12.5 µM
O=c1c2ccccc2sc2ccc(C#CC3(O)CCCCC3)cc12	23.1 µM
COc1ccc(C(=O)NCCNc2nc3c(C)cccc3cc2C#N)cc1	24.4 µM
Oc1nc(Nc2ccc(F)cc2)sc1/C=C1\C=Nc2ccccc21	> 50 µM (inactive)
CN(CCOc1ccccc1)CC(=O)Nc1ccc(Cl)cc1[N+](=O)[O-]	> 50 µM (inactive)
CCOC(=O)c1sc(N/N=C/c2cc(Br)c(O)c(OC)c2)nc1C	> 50 µM (inactive)
